Test results from the NIST ThermoML archive (doi:10.1021/je060271a).

Conditions: 303.14 K, Liquid, Vibrating tube method

CCCCCCC(=O)OCC(COC(=O)CCCCCC)(COC(=O)CCCCCC)COC(=O)CCCCCC [pentaerythritol tetraheptanoate]
Conditions | mass density [kg/m3]
8357.2 kPa | 975.8
8381 kPa | 975.9
8405.1 kPa | 976
8433.4 kPa | 976
8458.1 kPa | 975.9
8483.1 kPa | 976.1
8509.4 kPa | 976
8533.9 kPa | 976.1
8563.4 kPa | 976
8587.9 kPa | 976.2
8617.9 kPa | 976
8643.4 kPa | 976.1
8668.9 kPa | 976.1
8700 kPa | 976.2
8725.8 kPa | 976.1
8751.7 kPa | 976.1
8777.7 kPa | 976.2
8810 kPa | 976.2
8838.3 kPa | 976.2
8865.8 kPa | 976.3
8892.5 kPa | 976.1
8925.3 kPa | 976.3
8952.3 kPa | 976.3
8979 kPa | 976.3
9006.6 kPa | 976.4
9039.6 kPa | 976.3
9067.1 kPa | 976.3
9100.6 kPa | 976.4
9129 kPa | 976.4
9157.8 kPa | 976.5
9191.8 kPa | 976.5
9221.4 kPa | 976.5
9250.2 kPa | 976.4
9279.1 kPa | 976.4
9315 kPa | 976.4
9344.1 kPa | 976.6
9374.1 kPa | 976.5
9409.9 kPa | 976.5
9439.9 kPa | 976.6
9476.4 kPa | 976.6
9507.3 kPa | 976.7
9537.9 kPa | 976.6
9575 kPa | 976.6
9606.3 kPa | 976.8
9638.6 kPa | 976.8
9670.4 kPa | 976.7
9708.9 kPa | 976.7
9741.1 kPa | 976.9
9780.3 kPa | 976.8
9813.2 kPa | 976.9
9846 kPa | 976.7
9879 kPa | 976.9
9918.8 kPa | 976.9
9952.1 kPa | 976.9
9992 kPa | 977
10026 kPa | 976.8
10061 kPa | 976.9
10103 kPa | 977.1
10139 kPa | 977
10174 kPa | 977
10209 kPa | 977.2
10252 kPa | 977.1
10288 kPa | 977
10325 kPa | 977.2
10369 kPa | 977.2
10405 kPa | 977.1
10449 kPa | 977.2
10486 kPa | 977.2
10525 kPa | 977.2
10571 kPa | 977.3
10610 kPa | 977.3
10649 kPa | 977.3
10688 kPa | 977.4
10736 kPa | 977.4
10775 kPa | 977.3
10823 kPa | 977.4
10864 kPa | 977.4
10906 kPa | 977.6
10949 kPa | 977.4
11001 kPa | 977.6
11045 kPa | 977.5
11086 kPa | 977.5
11124 kPa | 977.6
11150 kPa | 977.6
11180 kPa | 977.6
11206 kPa | 977.7
11232 kPa | 977.6
11290 kPa | 977.6
11316 kPa | 977.6
11343 kPa | 977.8
11375 kPa | 977.6
11402 kPa | 977.7
11490 kPa | 977.7
11519 kPa | 977.9
11574 kPa | 977.9
11609 kPa | 978
11637 kPa | 977.8
11668 kPa | 977.9
11691 kPa | 977.8
11715 kPa | 977.9
11767 kPa | 978.1
11791 kPa | 978
11816 kPa | 978
11847 kPa | 978
11871 kPa | 977.9
11896 kPa | 978.1
11920 kPa | 978.1
11950 kPa | 978
11975 kPa | 978.1
12000 kPa | 978.2
12031 kPa | 978.2
12057 kPa | 978
12083 kPa | 978.2
12110 kPa | 978.1
12130 kPa | 978.2
12151 kPa | 978.2
12176 kPa | 978.3
12197 kPa | 978.3
12218 kPa | 978.2
12240 kPa | 978.3
12266 kPa | 978.3
12285 kPa | 978.3
12300 kPa | 978.3
12304 kPa | 978.3
12305 kPa | 978.4
12331 kPa | 978.3
12497 kPa | 978.4
12525 kPa | 978.5
12546 kPa | 978.5
12565 kPa | 978.5
12583 kPa | 978.5
12606 kPa | 978.4
12624 kPa | 978.5
12646 kPa | 978.5
12665 kPa | 978.5
12684 kPa | 978.4
12707 kPa | 978.5
12725 kPa | 978.6
12748 kPa | 978.5
12768 kPa | 978.7
12787 kPa | 978.5
12806 kPa | 978.5
12829 kPa | 978.6
12849 kPa | 978.6
12868 kPa | 978.8
12887 kPa | 978.6
12911 kPa | 978.6
12930 kPa | 978.7
12950 kPa | 978.7
12974 kPa | 978.7
12993 kPa | 978.7
13017 kPa | 978.8
13037 kPa | 978.7
13057 kPa | 978.8
13081 kPa | 978.8
13101 kPa | 978.8
13145 kPa | 978.7
13166 kPa | 978.8
13186 kPa | 978.9
13211 kPa | 978.9
13231 kPa | 978.9
13252 kPa | 978.8
13277 kPa | 978.9
13298 kPa | 978.9
13319 kPa | 978.9
13340 kPa | 978.9
13366 kPa | 979
13387 kPa | 978.9
13408 kPa | 978.9
13429 kPa | 979.1
13454 kPa | 979
13476 kPa | 979
13501 kPa | 979
13523 kPa | 979.1
13544 kPa | 979.1
13592 kPa | 979
13615 kPa | 979
13637 kPa | 979.1
13660 kPa | 979.1
13686 kPa | 979.2
13708 kPa | 979.1
13730 kPa | 979.1
13757 kPa | 979.1
13779 kPa | 979.3
13802 kPa | 979.2
13828 kPa | 979.3
13851 kPa | 979.2
13949 kPa | 979.3
13996 kPa | 979.4
14023 kPa | 979.3
14047 kPa | 979.3
14070 kPa | 979.5
14098 kPa | 979.3
14121 kPa | 979.4
14145 kPa | 979.5
14174 kPa | 979.4
14198 kPa | 979.4
14247 kPa | 979.4
14276 kPa | 979.4
14300 kPa | 979.4
14353 kPa | 979.5
14378 kPa | 979.5
14402 kPa | 979.5
14432 kPa | 979.5
14700 kPa | 979.8
14725 kPa | 979.9
14756 kPa | 979.8
14782 kPa | 979.7
14808 kPa | 979.7
15038 kPa | 979.8
15065 kPa | 980.1
15092 kPa | 980
15119 kPa | 979.9
15152 kPa | 980.1
15207 kPa | 980
15241 kPa | 980
15297 kPa | 980
15386 kPa | 980.1
15420 kPa | 980.1
15448 kPa | 980.2
15477 kPa | 980.2
15539 kPa | 980.1
15568 kPa | 980.2
15602 kPa | 980.2
